Data taken from ChEMBL document CHEMBL4622932, “Design, synthesis and biological evaluation of new Myo-inositol derivatives as potential RAS inhibitors” (Bioorg Med Chem Lett, 2020).

Assays:
[1] = target: GTPase KRas (Homo sapiens) (UniProt P01116); test: Inhibition of KRAS in human MDA-MB-231 cells assessed as reduction in phosphorylated ERK1/2 at Thr185/Tyr187 residues protein level at 35 uM measured after 24 hrs by Western blot analysis relative to control; assay type: cell-based
MCF7 [2] = test: Induction of apoptosis in human MCF7 cells assessed as live cells at 25 uM measured after 48 hrs by annexinV-FITC/propidium iodide staining based flow cytometry (reference value: 99.71 %); assay type: functional
MDA-MB-231 [3] = test: Induction of apoptosis in human MDA-MB-231 cells assessed as necrotic cells at 25 uM measured after 48 hrs by annexinV-FITC/propidium iodide staining based flow cytometry (reference value: 0.31 %); assay type: functional
MDA-MB-231 [4] = test: Induction of apoptosis in human MDA-MB-231 cells assessed as late apoptotic cells at 15 uM measured after 48 hrs by annexinV-FITC/propidium iodide staining based flow cytometry (reference value: 0 %); assay type: functional
[5] = target: GTPase KRas (Homo sapiens) (UniProt P01116); test: Inhibition of KRAS in human MDA-MB-231 cells assessed as reduction in Pan RAS protein level at 35 uM measured after 24 hrs by Western blot analysis relative to control; assay type: cell-based
[6] = target: GTPase KRas (Homo sapiens) (UniProt P01116); test: Inhibition of KRAS in human MDA-MB-231 cells assessed as reduction in ERK1/2 137F5 protein level at 25 uM measured after 24 hrs by Western blot analysis relative to control; assay type: cell-based
[7] = target: GTPase KRas (Homo sapiens) (UniProt P01116); test: Inhibition of KRAS in human MDA-MB-231 cells assessed as reduction in Pan RAS protein level at 25 uM measured after 24 hrs by Western blot analysis relative to control; assay type: cell-based
MDA-MB-231 [8] = test: Induction of apoptosis in human MDA-MB-231 cells assessed as live cells at 25 uM measured after 48 hrs by annexinV-FITC/propidium iodide staining based flow cytometry (reference value: 99 %); assay type: functional
[9] = target: GTPase KRas (Homo sapiens) (UniProt P01116); test: Inhibition of KRAS in human MCF7 cells assessed as reduction in phosphorylated MEK1/2 at Ser217/221 residues protein level at 15 uM measured after 24 hrs by Western blot analysis relative to control; assay type: cell-based
[10] = target: GTPase KRas (Homo sapiens) (UniProt P01116); test: Inhibition of KRAS in human MCF7 cells assessed as reduction in phosphorylated ERK1/2 at Thr185/Tyr187 residues protein level at 15 uM measured after 24 hrs by Western blot analysis relative to control; assay type: cell-based
[11] = target: GTPase KRas (Homo sapiens) (UniProt P01116); test: Inhibition of KRAS in human MDA-MB-231 cells assessed as reduction in ERK1/2 137F5 protein level at 35 uM measured after 24 hrs by Western blot analysis relative to control; assay type: cell-based
MDA-MB-231 [12] = test: Induction of apoptosis in human MDA-MB-231 cells assessed as late apoptotic cells at 25 uM measured after 48 hrs by annexinV-FITC/propidium iodide staining based flow cytometry (reference value: 0 %); assay type: functional
[13] = target: GTPase KRas (Homo sapiens) (UniProt P01116); test: Inhibition of KRAS in human MCF7 cells assessed as reduction in ERK1/2 137F5 protein level at 25 uM measured after 24 hrs by Western blot analysis relative to control; assay type: cell-based
[14] = target: GTPase KRas (Homo sapiens) (UniProt P01116); test: Inhibition of KRAS in human MDA-MB-231 cells assessed as reduction in phosphorylated RAF-1 E1 protein level at 25 uM measured after 24 hrs by Western blot analysis relative to control; assay type: cell-based
MCF7 [15] = test: Induction of apoptosis in human MCF7 cells assessed as late apoptotic cells at 15 uM measured after 48 hrs by annexinV-FITC/propidium iodide staining based flow cytometry (reference value: 0.17 %); assay type: functional
[16] = target: GTPase KRas (Homo sapiens) (UniProt P01116); test: Inhibition of KRAS in human MCF7 cells assessed as reduction in MEK1/2 9G3 protein level at 25 uM measured after 24 hrs by Western blot analysis relative to control; assay type: cell-based
MDA-MB-231 [17] = test: Cell cycle arrest in human MDA-MB-231 cells assessed as accumulation at G2 phase at 25 uM measured after 48 hrs by propidium iodide/RNase staining based flow cytometry (reference value: 3.35 %); assay type: functional
[18] = target: GTPase KRas (Homo sapiens) (UniProt P01116); test: Inhibition of KRAS in human MCF7 cells assessed as reduction in phosphorylated RAF-1 E1 protein level at 15 uM measured after 24 hrs by Western blot analysis relative to control; assay type: cell-based
MDA-MB-231 [19] = test: Induction of apoptosis in human MDA-MB-231 cells assessed as necrotic cells at 15 uM measured after 48 hrs by annexinV-FITC/propidium iodide staining based flow cytometry (reference value: 0.31 %); assay type: functional
[20] = target: GTPase KRas (Homo sapiens) (UniProt P01116); test: Inhibition of KRAS in human MCF7 cells assessed as reduction in phosphorylated RAF-1 E1 protein level at 25 uM measured after 24 hrs by Western blot analysis relative to control; assay type: cell-based
[21] = target: GTPase KRas (Homo sapiens) (UniProt P01116); test: Inhibition of KRAS in human MCF7 cells assessed as reduction in phosphorylated ERK1/2 at Thr185/Tyr187 residues protein level at 25 uM measured after 24 hrs by Western blot analysis relative to control; assay type: cell-based
[22] = target: GTPase KRas (Homo sapiens) (UniProt P01116); test: Inhibition of KRAS in human MDA-MB-231 cells assessed as reduction in MEK1/2 9G3 protein level at 15 uM measured after 24 hrs by Western blot analysis relative to control; assay type: cell-based
[23] = target: GTPase KRas (Homo sapiens) (UniProt P01116); test: Inhibition of KRAS in human MDA-MB-231 cells assessed as reduction in phosphorylation of MEK measured after 24 hrs by Western blot analysis; assay type: cell-based
[24] = target: GTPase KRas (Homo sapiens) (UniProt P01116); test: Inhibition of KRAS in human MCF7 cells assessed as reduction in phosphorylated ERK1/2 at Thr185/Tyr187 residues protein level at 35 uM measured after 24 hrs by Western blot analysis relative to control; assay type: cell-based
[25] = target: GTPase KRas (Homo sapiens) (UniProt P01116); test: Inhibition of KRAS in human MDA-MB-231 cells assessed as reduction in MEK1/2 9G3 protein level at 25 uM measured after 24 hrs by Western blot analysis relative to control; assay type: cell-based
[26] = target: GTPase KRas (Homo sapiens) (UniProt P01116); test: Inhibition of KRAS in human MDA-MB-231 cells assessed as reduction in phosphorylated MEK1/2 at Ser217/221 residues protein level at 15 uM measured after 24 hrs by Western blot analysis relative to control; assay type: cell-based
[27] = target: GTPase KRas (Homo sapiens) (UniProt P01116); test: Inhibition of KRAS in human MCF7 cells assessed as reduction in Pan RAS protein level at 35 uM measured after 24 hrs by Western blot analysis relative to control; assay type: cell-based
[28] = target: GTPase KRas (Homo sapiens) (UniProt P01116); test: Inhibition of KRAS in human MCF7 cells assessed as reduction in phosphorylated RAF-1 E1 protein level at 35 uM measured after 24 hrs by Western blot analysis relative to control; assay type: cell-based
MDA-MB-231 [29] = test: Cell cycle arrest in human MDA-MB-231 cells assessed as accumulation at G2 phase at 15 uM measured after 48 hrs by propidium iodide/RNase staining based flow cytometry (reference value: 3.35 %); assay type: functional
[30] = target: GTPase KRas (Homo sapiens) (UniProt P01116); test: Inhibition of KRAS in human MCF7 cells assessed as reduction in Pan RAS protein level at 25 uM measured after 24 hrs by Western blot analysis relative to control; assay type: cell-based
MCF7 [31] = test: Induction of apoptosis in human MCF7 cells assessed as live cells at 15 uM measured after 48 hrs by annexinV-FITC/propidium iodide staining based flow cytometry (reference value: 99.71 %); assay type: functional
MDA-MB-231 [32] = test: Cell cycle arrest in human MDA-MB-231 cells assessed as accumulation at S phase at 25 uM measured after 48 hrs by propidium iodide/RNase staining based flow cytometry (reference value: 22.09 %); assay type: functional
[33] = target: GTPase KRas (Homo sapiens) (UniProt P01116); test: Inhibition of KRAS in human MCF7 cells assessed as reduction in MEK1/2 9G3 protein level at 35 uM measured after 24 hrs by Western blot analysis relative to control; assay type: cell-based

Structure (SMILES): O=P(Oc1ccccc1)(Oc1ccccc1)OC1C2OC3(c4ccccc4)OC(C2O)C(O)C1O3 (stereo not drawn)
- fold change (FC) [1]: 0.42
- Activity (MCF7 [2]): 36.83%
- Activity (MDA-MB-231 [3]): 16.64%
- Activity (MDA-MB-231 [4]): 0.39%
- fold change (FC) [5]: 0.46
- fold change (FC) [6]: 0.91
- fold change (FC) [7]: 1.18
- Activity (MDA-MB-231 [8]): 62.65%
- fold change (FC) [9]: 0.91
- fold change (FC) [10]: 1.02
- fold change (FC) [11]: 0.93
- Activity (MDA-MB-231 [12]): 0.64%
- fold change (FC) [13]: 1.14
- fold change (FC) [14]: 0.14
- Activity (MCF7 [15]): 0.28%
- fold change (FC) [16]: 1.06
- Activity (MDA-MB-231 [17]): 0%
- fold change (FC) [18]: 1.06
- Activity (MDA-MB-231 [19]): 7.3%
- fold change (FC) [20]: 0.99
- fold change (FC) [21]: 0.91
- fold change (FC) [22]: 0.91
- inhibition [23]: Dose-dependent effect
- fold change (FC) [24]: 0.35
- fold change (FC) [25]: 0.61
- fold change (FC) [26]: 1.24
- fold change (FC) [27]: 1.11
- fold change (FC) [28]: 1.05
- Activity (MDA-MB-231 [29]): 21.02%
- fold change (FC) [30]: 1.16
- Activity (MCF7 [31]): 32.46%
- Activity (MDA-MB-231 [32]): 40.07%
- fold change (FC) [33]: 0.87
